# According to PubChem BioAssay (NCI):
#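 Growth conditions: 96-well plates. Treatment: test compound, 48 hours, 5 concentrations. Analysis: linear interpolation between bracketing concentrations; unreached endpoints set to highest concentration. The concentration for 50% growth inhibition is given as GI50. TGI marks complete inhibition of growth.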
# How the values were obtained:
# Assay in all cases: growth of human tumour cells (NCI), 48 h
# 786-0 renal = system: 786-0 renal
# A498 renal = system: A498 renal
# A549 NSCLC = system: A549 NSCLC
# ACHN renal = system: ACHN renal
# BT-549 breast = system: BT-549 breast
# CAKI-1 renal = system: CAKI-1 renal
# CCRF-CEM leukemia = system: CCRF-CEM leukemia
# COLO 205 colon = system: COLO 205 colon
# DU-145 prostate = system: DU-145 prostate
# EKVX NSCLC = system: EKVX NSCLC
# HCC-2998 colon = system: HCC-2998 colon
# HCT-116 colon = system: HCT-116 colon
# HCT-15 colon = system: HCT-15 colon
# HL-60(TB) leukemia = system: HL-60(TB) leukemia
# HOP-62 NSCLC = system: HOP-62 NSCLC
# HOP-92 NSCLC = system: HOP-92 NSCLC
# HS 578T breast = system: HS 578T breast
# HT29 colon = system: HT29 colon
# IGROV1 ovarian = system: IGROV1 ovarian
# K-562 leukemia = system: K-562 leukemia
# KM12 colon = system: KM12 colon
# LOX IMVI melanoma = system: LOX IMVI melanoma
# M14 melanoma = system: M14 melanoma
# MALME-3M melanoma = system: MALME-3M melanoma
# MCF7 breast = system: MCF7 breast
# MDA-MB-231 breast = system: MDA-MB-231 breast
# MDA-MB-435 = system: MDA-MB-435
# MOLT-4 leukemia = system: MOLT-4 leukemia
# NCI-H226 lung = system: NCI-H226 lung
# NCI-H23 lung = system: NCI-H23 lung
# NCI-H460 lung = system: NCI-H460 lung
# NCI-H522 lung = system: NCI-H522 lung
# NCI/ADR-RES ovarian = system: NCI/ADR-RES ovarian
# OVCAR-3 ovarian = system: OVCAR-3 ovarian
# OVCAR-4 ovarian = system: OVCAR-4 ovarian
# OVCAR-5 ovarian = system: OVCAR-5 ovarian
# OVCAR-8 ovarian = system: OVCAR-8 ovarian
# PC-3 prostate = system: PC-3 prostate
# SF-268 CNS = system: SF-268 CNS
# SF-295 CNS = system: SF-295 CNS
# SF-539 CNS = system: SF-539 CNS
# SK-MEL-2 melanoma = system: SK-MEL-2 melanoma
# SK-MEL-28 melanoma = system: SK-MEL-28 melanoma
# SK-MEL-5 melanoma = system: SK-MEL-5 melanoma
# SK-OV-3 ovarian = system: SK-OV-3 ovarian
# SN12C renal = system: SN12C renal
# SNB-19 CNS = system: SNB-19 CNS
# SNB-75 CNS = system: SNB-75 CNS
# SR leukemia = system: SR leukemia
# SW-620 colon = system: SW-620 colon
# T-47D breast = system: T-47D breast
# TK-10 renal = system: TK-10 renal
# U251 CNS = system: U251 CNS
# UACC-257 melanoma = system: UACC-257 melanoma
# UACC-62 melanoma = system: UACC-62 melanoma
# UO-31 renal = system: UO-31 renal
smiles,measurement,setting,value
CC(Nc1c(C#N)cnc2ccc(-c3cncc(O)c3)cc12)c1ccccc1 (configuration not stated),GI50,786-0 renal,2.74 µM
same,TGI,786-0 renal,10.4 µM
same,GI50,A498 renal,2.72 µM
same,TGI,A498 renal,18 µM
same,GI50,A549 NSCLC,3.57 µM
same,TGI,A549 NSCLC,47.3 µM
same,GI50,ACHN renal,1.4 µM
same,TGI,ACHN renal,10.7 µM
same,GI50,BT-549 breast,0.547 µM
same,TGI,BT-549 breast,4.54 µM
same,GI50,CAKI-1 renal,2.24 µM
same,TGI,CAKI-1 renal,13.5 µM
same,GI50,CCRF-CEM leukemia,2.4 µM
same,TGI,CCRF-CEM leukemia,> 100 µM
same,GI50,COLO 205 colon,14.9 µM
same,TGI,COLO 205 colon,36.1 µM
same,GI50,DU-145 prostate,1.48 µM
same,TGI,DU-145 prostate,10.6 µM
same,GI50,EKVX NSCLC,2.07 µM
same,TGI,EKVX NSCLC,12.6 µM
same,GI50,HCC-2998 colon,3.73 µM
same,TGI,HCC-2998 colon,14.8 µM
same,GI50,HCT-116 colon,2.4 µM
same,TGI,HCT-116 colon,12.4 µM
same,GI50,HCT-15 colon,1.69 µM
same,TGI,HCT-15 colon,11.5 µM
same,GI50,HL-60(TB) leukemia,4.22 µM
same,TGI,HL-60(TB) leukemia,> 100 µM
same,GI50,HOP-62 NSCLC,2.39 µM
same,TGI,HOP-62 NSCLC,16 µM
same,GI50,HOP-92 NSCLC,0.409 µM
same,TGI,HOP-92 NSCLC,6.02 µM
same,GI50,HS 578T breast,1.08 µM
same,TGI,HS 578T breast,4.82 µM
same,GI50,HT29 colon,18.1 µM
same,TGI,HT29 colon,> 100 µM
same,GI50,IGROV1 ovarian,0.948 µM
same,TGI,IGROV1 ovarian,3.91 µM
same,GI50,K-562 leukemia,2.51 µM
same,TGI,K-562 leukemia,> 100 µM
same,GI50,KM12 colon,3.09 µM
same,TGI,KM12 colon,12.2 µM
same,GI50,LOX IMVI melanoma,1.31 µM
same,TGI,LOX IMVI melanoma,8.51 µM
same,GI50,M14 melanoma,2.08 µM
same,TGI,M14 melanoma,11.6 µM
same,GI50,MALME-3M melanoma,0.407 µM
same,TGI,MALME-3M melanoma,3.4 µM
same,GI50,MCF7 breast,1.91 µM
same,TGI,MCF7 breast,10.2 µM
same,GI50,MDA-MB-231 breast,1.67 µM
same,TGI,MDA-MB-231 breast,11.9 µM
same,GI50,MDA-MB-435,2.94 µM
same,TGI,MDA-MB-435,15.5 µM
same,GI50,MOLT-4 leukemia,2.11 µM
same,TGI,MOLT-4 leukemia,> 100 µM
same,GI50,NCI-H226 lung,1.99 µM
same,TGI,NCI-H226 lung,13.2 µM
same,GI50,NCI-H23 lung,1.86 µM
same,TGI,NCI-H23 lung,7.88 µM
same,GI50,NCI-H460 lung,2.57 µM
same,TGI,NCI-H460 lung,11.4 µM
same,GI50,NCI-H522 lung,2.31 µM
same,TGI,NCI-H522 lung,13.5 µM
same,GI50,NCI/ADR-RES ovarian,3.36 µM
same,TGI,NCI/ADR-RES ovarian,23.5 µM
same,GI50,OVCAR-3 ovarian,1.05 µM
same,TGI,OVCAR-3 ovarian,5.84 µM
same,GI50,OVCAR-4 ovarian,1.59 µM
same,TGI,OVCAR-4 ovarian,9.49 µM
same,GI50,OVCAR-5 ovarian,4.3 µM
same,TGI,OVCAR-5 ovarian,30.7 µM
same,GI50,OVCAR-8 ovarian,1.83 µM
same,TGI,OVCAR-8 ovarian,15.4 µM
same,GI50,PC-3 prostate,1.65 µM
same,TGI,PC-3 prostate,> 100 µM
same,GI50,SF-268 CNS,1.99 µM
same,TGI,SF-268 CNS,12 µM
same,GI50,SF-295 CNS,2.87 µM
same,TGI,SF-295 CNS,11.7 µM
same,GI50,SF-539 CNS,2.14 µM
same,TGI,SF-539 CNS,11 µM
same,GI50,SK-MEL-2 melanoma,2.03 µM
same,TGI,SK-MEL-2 melanoma,6.44 µM
same,GI50,SK-MEL-28 melanoma,1.86 µM
same,TGI,SK-MEL-28 melanoma,10.8 µM
same,GI50,SK-MEL-5 melanoma,1.24 µM
same,TGI,SK-MEL-5 melanoma,2.57 µM
same,GI50,SK-OV-3 ovarian,3.38 µM
same,TGI,SK-OV-3 ovarian,10.7 µM
same,GI50,SN12C renal,0.721 µM
same,TGI,SN12C renal,6.68 µM
same,GI50,SNB-19 CNS,1.9 µM
same,TGI,SNB-19 CNS,7.66 µM
same,GI50,SNB-75 CNS,0.961 µM
same,TGI,SNB-75 CNS,17.6 µM
same,GI50,SR leukemia,2.26 µM
same,TGI,SR leukemia,> 100 µM
same,GI50,SW-620 colon,3.56 µM
same,TGI,SW-620 colon,11.4 µM
same,GI50,T-47D breast,1.68 µM
same,TGI,T-47D breast,13.8 µM
same,GI50,TK-10 renal,4.45 µM
same,TGI,TK-10 renal,50 µM
same,GI50,U251 CNS,1.88 µM
same,TGI,U251 CNS,17.1 µM
same,GI50,UACC-257 melanoma,4.32 µM
same,TGI,UACC-257 melanoma,45.6 µM
same,GI50,UACC-62 melanoma,1.7 µM
same,TGI,UACC-62 melanoma,4.16 µM
same,GI50,UO-31 renal,0.408 µM
same,TGI,UO-31 renal,5.61 µM
